Data set [1] relates to extracellular signal-regulated kinase (ERK) phosphorylation. Kind of data set: Western blot analysis of phosphorylated ERK in HeLa cells. It is filed as cell-based. Particulars: HeLa cells preincubated with 10 µM Ki16425 for 30 min. On the procedure:
Figure 3 Effects of 2-carba-lysophosphatidic acid (2carbaLPA) on the phosphorylation of the extracellular signal-regulated kinase (ERK) protein. HeLa cells were preincubated with 10 µM Ki16425 for 30 min at 37 °C and then incubated with 10 µM 2carbaLPA, lysophosphatidic acid (LPA) 18:1, or vehicle for 5 min at 37 °C. Protein levels of phosphorylated ERK, total ERK, and α-tubulin were determined by western blot analysis. The full-length blots are shown in the Supplementary Fig. S2.
HeLa cells were obtained from RIKEN RBC Cell Bank (Tsukuba, Japan). […] Cells were harvested using 0.125 M Tris–HCl (pH 6.8) supplemented with 4% sodium dodecyl sulphate (SDS), 20% glycerol, 10% 2-mercaptoethanol, and 0.01% bromophenol blue. Proteins were separated by SDS–polyacrylamide gel electrophoresis, and the proteins were transferred onto an Immobilon-P Transfer Membrane (Millipore, Burlington, MA, USA). The membrane was incubated with primary antibodies: anti-phospho-ERK (pERK), anti-ERK, and anti-tubulin (all at 1:1,000 dilution, Cell Signaling Technology, Danvers, MA, USA). Next, after washing, the membrane was treated with horseradish peroxidase-conjugated anti-rabbit IgG (1:1000 dilution; Cell Signaling Technology). Immunodetection was performed using an enhanced chemiluminescence system (EzWestLumi plus, ATTO Corporation, Tokyo, Japan) and ImageQuant LAS 4000 (GE healthcare, Buckinghamshire, UK).
(In general: In western blotting, separated proteins are transferred to a membrane and probed.)

Data set [2] in a line: cPA analogue stability in the 293A cell medium. The conditions noted are these: 10 µM, 1 h, 37 °C, 293A (HEK) cell medium. It is filed as in vitro ADME. The protocol: Supplementary Figure S3. Cyclic phosphatidic acid (cPA) analogue stability in the HEK cell medium. Each cPA analogue (final concentration: 10 µM) was incubated with the HEK cell medium for 1 h at 37 °C. The remaining cPA analogue was quantified using liquid chromatography with tandem mass spectrometry (LC-QqQ) and calculated based on the percentage (%) ratio of the final concentration after incubation to the initial concentration. Data are represented as mean ± standard deviation (n = 3 samples).
293A cells were prepared in Hank’s balanced salt solution (HBSS) in 96-well plates. […] After incubation for 1 h at 37 ℃, 80 µL of the supernatant was collected and mixed with 320 µL of acidic methanol, including LPA 17:0 and cPA 17:0 (final concentration: 0.2 µM each; Avanti Polar Lipids, Alabaster, AL, USA).

In another data set the target is T1, hLPA1 (Homo sapiens, UniProt Q92633).
T1 construct: expressed in transfected cells; host or cells: 293A cells
T1 sequence (Q92633 whole entry): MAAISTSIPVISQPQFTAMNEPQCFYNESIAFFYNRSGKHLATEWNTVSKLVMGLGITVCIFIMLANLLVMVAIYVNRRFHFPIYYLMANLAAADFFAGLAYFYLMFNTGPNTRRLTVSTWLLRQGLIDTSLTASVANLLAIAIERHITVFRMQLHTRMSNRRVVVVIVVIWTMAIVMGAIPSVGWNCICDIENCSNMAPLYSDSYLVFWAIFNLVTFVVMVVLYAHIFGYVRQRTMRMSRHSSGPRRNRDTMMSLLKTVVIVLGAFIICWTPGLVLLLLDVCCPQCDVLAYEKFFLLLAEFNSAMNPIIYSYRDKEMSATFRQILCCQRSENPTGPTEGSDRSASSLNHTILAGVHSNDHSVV
Put plainly: TGFα-shedding assay, LPA1. It is filed as cell-based. The conditions noted are these: 293A cells, AP-TGFα release. The protocol: Figure 4 Agonistic activity of 2-carba-lysophosphatidic acid (2carbaLPA) and cyclic phosphatidic acid (cPA) analogues toward six lysophosphatidic acid (LPA) receptors. 293A cells expressing LPA receptors were stimulated with the indicated concentration of LPA, 2carbaLPA, and cPA analogues. Receptor-specific alkaline phosphatase-tagged transforming growth factor-α release was calculated by subtracting the responses in the empty vector-transfected cells from those in the receptor-expressing cells. Data are represented as standard error of the mean of three independent replicates.
293A cells (Life Technologies, Tokyo, Japan) were cultured in DMEM (Nissui Pharmaceutical, Tokyo, Japan) supplemented with 10% foetal calf serum (Gibco, Waltham, MA, USA) in an incubator at 37 °C and 5% CO2. This assay was conducted according to a modified version of a method described previously. To improve signal detection, cells for the analysis of LPA1, LPA2, LPA4, and LPA5 were transfected with Gα-chimeric proteins, whereas those for LPA4, LPA5, LPA6 analysis were treated with the LPA1–3 antagonist Ki16425. The cells were co-transfected with vectors-expressing human LPA1–6, alkaline phosphatase-tagged TGFα (AP-TGFα). As negative controls, cells transfected with an empty vector instead of the receptor-expressing vector were used. After 24 h, the cells were resuspended in Hank’s balanced salt solution (HBSS), seeded in 96-well plates, and stimulated with cPA analogues administered at tenfold concentration of the final concentration. The cPA analogues were diluted with HBSS, 0.01% protease and fatty acid-free BSA (SERVA Electrophoresis GmbH, Heidelberg, Germany). Cells for LPA4, LPA5, and LPA6 analysis were treated with Ki16425 (final concentration: 10 μM), 5 min before treatment with the cPA analogues. After incubation for 1 h at 37 °C, 80 µL of the supernatant was transferred to fresh 96-well plates. An equal volume of 1 mM p-NPP solution [120 mM Tris–HCl (pH 9.5), 40 mM NaCl, and 10 mM MgCl2] was added to both the supernatant and the cells. Alkaline phosphatase activity was calculated by measuring absorbance at 405 nm using the Cytation 3 plate reader (BioTek, Winooski, VT, USA).

Structures are written as SMILES.

Consider `Cc1noc(-c2ccc(CSCCC(=O)O)cc2)c1NC(=O)OC(C)c1ccccc1Cl` (stereo not shown) [Ki16425], for which, in data set [1], the “Effect on 2carbaLPA-induced ERK activation” value was “inhibited”.

With `CCCCCCCCC=CCCCCCCCC(=O)OCC(O)COP(=O)(O)O` (stereo not shown) [LPA 18:1, 1-Oleoyl-LPA], in data set [2], the “Compound remaining after incubation” value is recorded as “approximately 70%”. Moreover, the EC50 (as a rule, the concentration at which the effect is half-maximal) on hLPA1 (1 h) came out at 11.4 nM. Also, the Emax (commonly the greatest response seen or fitted, relative to the assay's reference) on hLPA1 (read-out: Emax ± SEM hLPA1 (converted)) is 26.9%.
